Assay results as given in patent US20260234165A1, “MACROCYCLIC COMPOUNDS, PREPARATION METHOD THEREFOR, AND USE THEREOF” (GENFLEET THERAPEUTICS (SHANGHAI) INC., priority 2004, published 2026).
Structures can show the parent of a compound that is named as a salt. Where two headings read alike, the source gives them in different places.

Tests used:
Type in all cases: cell-based, human
[1] = system: AsPC-1 cells (KRAS G12D mutation); experiment: 3D cell proliferation assay (CellTiter Glo-3D), AsPC-1; conditions: medium with 2% FBS, read-out: AsPC-1 AP IC50
How it was run: (§1)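 NCI-H441 ([…] lung) and AsPC-1 (KRAS G12D pancreatic) cells, 800 per well, were seeded in RPMI-1640 with 2% FBS and dosed next day with 3.16-fold compound dilutions (0.1% DMSO). After 5 days at 37 °C, CellTiter-Glo 3D luminescence gave inhibition versus DMSO and blank; IC50 from four-parameter fit.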

[2] = system: p-ERK in NCI-H441 cells (KRAS G12V mutation); experiment: Cell p-ERK assay (HTRF) in NCI-H441 cells
How it was run: (§2)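 In this cellular format, endogenous KRAS-mutant lines grown in RPMI-1640 plus 10% FBS received graded compound concentrations for 3 h at 37 °C. Lysates were incubated 4 h with the phospho-T202/Y204 ERK HTRF antibody pair, and percent inhibition relative to DMSO and blank wells was curve-fitted to give IC50.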

NCI-H441 cells = experiment: 3D cell proliferation assay (CellTiter Glo-3D), NCI-H441; conditions: medium with 2% FBS, read-out: H441 AP IC50
How it was run: as §1

[3] = system: p-ERK in AsPC-1 cells (KRAS G12D mutation); experiment: Cell p-ERK assay (HTRF) in AsPC-1 cells
How it was run: as §2

[4] = 3D cell proliferation (CellTiter Glo-3D)
[5] = NCI-H441 cells, 3 h compound incubation, HTRF p-ERK T202/Y204, read-out: H441 p-ERK IC50
[6] = AsPC-1 cells, 3 h compound incubation, HTRF p-ERK T202/Y204, read-out: AsPC-1 p-ERK IC50
[7] = Homo sapiens, ASPC1, 3D cell proliferation (CellTiter Glo-3D)
[8] = Homo sapiens, NCI-H441, 3 h, NCI-H441 cells, 3 h compound incubation, HTRF p-ERK T202/Y204, read-out: H441 p-ERK IC50
[9] = Homo sapiens, NCI-H441, 3D cell proliferation (CellTiter Glo-3D)
[10] = Homo sapiens, ASPC1, 3 h, AsPC-1 cells, 3 h compound incubation, HTRF p-ERK T202/Y204, read-out: AsPC-1 p-ERK IC50

| SMILES | IC50 [1, 4] | IC50 [2, 5] | IC50 (NCI-H441 cells; [4]) | IC50 [3, 6] | IC50 [1, 7] | IC50 ([2]; Homo sapiens, NCI-H441, 3 h, read-out: H441 p-ERK IC50(nM)) | IC50 (NCI-H441 cells; Homo sapiens, 3D cell proliferation (CellTiter Glo-3D)) | IC50 ([3]; Homo sapiens, ASPC1, 3 h, read-out: AsPC-1 p-ERK IC50(nM)) | IC50 [2, 8] | IC50 (NCI-H441 cells; [9]) | IC50 [3, 10] |
| --- | --- | --- | --- | --- | --- | --- | --- | --- | --- | --- | --- |
| CCn1c(-c2cc(C#CC(C)(C)N3CCC(OC)CC3)cnc2[C@H](C)OC)c2c3cc(ccc31)-c1csc(n1)C[C@H](NC(=O)[C@H]1[C@H](C)[C@@H]1C)C(=O)N1CCC[C@H](N1)C(=O)OCC(C)(C)C2 (atropisomer, axis not shown; (Ra)) [Compound Z628-1, (1r,2R,3S)—N-((6^3S,4S,Z)-1^1-ethyl-(Ra)-1^2-(2-((S)-1-methoxyethyl)-5-(3-(4-methoxypiperidin-1-yl)-3-methylbut-1-yn-1-yl)pyridin-3-yl)-10,10-dimethyl-5,7-dioxo-6^1,6^2,6^3,6^4,6^5,6^6hexahydro-1^1H-8-oxa-2(4,2)-thiazola-1(5,3)-indola-6(1,3)-pyridazinacycloundecaphane-4-yl)-2,3-dimethylcyclopropane-1-carboxamide] | 0.62 nM | 0.35 nM | 0.34 nM | 0.31 nM |  |  |  |  |  |  |  |
| CCn1c(-c2cc(C#CCN3CCC3)cnc2[C@H](C)OC)c2c3cc(ccc31)-c1csc(n1)C[C@H](NC(=O)[C@H]1[C@H](C)[C@@H]1C)C(=O)N1CCC[C@H](N1)C(=O)OCC(C)(C)C2 [Compound Z361, (1r,2R,3S)—N-((6^3S,4S,Z)-1-(5-(3-(azetidin-1-yl)prop-1-yn-1-yl)-2-((S)-1-methoxyethyl)pyridin-3-yl)-1^1-ethyl-10,10-dimethyl-5,7-dioxo-6^1,6^2,6^3,6^4,6^5,6^6-hexahydro-1^1H-8-oxa-2(4,2)-thiazola-1(5,3)-indola-6(1,3)-pyridazinacycloundecaphane-4-yl)-2,3-dimethylcyclopropane-1-carboxamide formate] | 2.38 nM | 2.61 nM | 2.25 nM | 2.66 nM |  |  |  |  |  |  |  |
| CCn1c(-c2cc(C#CCN3CCC(C#N)(c4cccc[n+]4[O-])CC3)cnc2[C@H](C)OC)c2c3cc(ccc31)-c1csc(n1)C[C@H](NC(=O)[C@H]1[C@H](C)[C@@H]1C)C(=O)N1CCC[C@H](N1)C(=O)OCC(C)(C)C2 [Compound Z1054, 2-(4-cyano-1-(3-(5-((6^3S,4S,Z)-4-((2R,3S)-2 3-dimethylcyclopropane-1-carboxamido)-1^1-ethyl-10,10-dimethyl-5,7-dioxo-6^1,6^2,6^3,6^4,6^5,6^6-hexahydro-1^1H-8-oxa-2(4.2)-thiazola-1(5,3)-indola-6(1,3)-pyridazinacycloundecaphane-12-yl)-6-((S)-1-methoxyethyl)pyridin-3-yl)prop-2-yn-1-yl)piperidin-4-yl)pyridine 1-oxide formate] |  |  |  |  | 0.08 nM | 0.25 nM | 0.15 nM | 0.16 nM |  |  |  |
| CCn1c(-c2cc(C#CCN3CC(O)C3)cnc2[C@H](C)OC)c2c3cc(ccc31)-c1csc(n1)C[C@H](NC(=O)[C@H]1[C@H](C)[C@@H]1C)C(=O)N1CCC[C@H](N1)C(=O)OCC(C)(C)C2 [Compound Z1065, (2R,3S)—N-((6^3S,4S,Z)-1^1-ethyl-1^2-(5-(3-(3-hydroxyazetidin-1-yl)prop-1-yn-1-yl)-((S)-1-methoxyethyl)pyridin-3-yl)-10,10-dimethyl-5,7-dioxo-6^1,6^2,6^3,6^4,6^5,6^6-hexahydro-1^1H-8-oxo-2(4,2)-thiazola-1(5,3)-indola-6(1,3)-pyridazinacycloundecaphane-4-yl)-2,3-dimethylcyclopropane-1-carboxamide formate] | 0.43 nM | 0.31 nM | 0.4 nM | 0.42 nM |  |  |  |  |  |  |  |
| CC[C@@H](C)C(=O)N[C@H]1Cc2nc(cs2)-c2ccc3c(c2)c(c(-c2cc(OCCN4CCS(=O)(=O)CC4)cnc2[C@H](C)OC)n3CC)CC(C)(C)COC(=O)[C@@H]2CCCN(N2)C1=O (atropisomer, axis not shown; (Ra)) [Compound Z610, (2R)—N-((6^3S,4S,Z)—(Ra)-1^2-(5-(2-(1,1-dioxidothiomorpholino)ethoxy)-2-((S)-1-methoxyethyl)pyridin-3-yl)-1^1-ethyl-10,10-dimethyl-5,7-dioxo-6^1,6^2,6^3,6^4,6^5,6^6-hexahydro-1^1H-8-oxa-2(4,2)-thiazola-1(5,3)-indola-6(1,3)-pyridazinacycloundecaphane-4-yl)-2-methylbutanamide] |  |  |  |  | 1.37 nM |  |  |  | 0.57 nM | 0.32 nM | 0.71 nM |
| CO[C@@H](C)c1ncc(C#CCN2CCC2)cc1-c1c2c3cc(ccc3n1CC(F)(F)F)-c1csc(n1)C[C@H](NC(=O)[C@H]1[C@H](C)[C@@H]1C)C(=O)N1CCC[C@H](N1)C(=O)OCC(C)(C)C2 (atropisomer, axis not shown; (Ra)) [Compound Z362-2, (1r,2R,3S)—N-((6^3S,4S,Z)-1′-(5-(3-(azetidin-1-yl)prop-1-yn-1-yl)-(Ra)-2-((S)-1-methoxyethyl)pyridin-3-yl)-10,10-dimethyl-5,7-dioxo-1^1-(2,2,2-trifluoroethyl)-6^1,6^2,6^3,6^4,6^5,6^6-hexahydro-1^1H-8-oxa-2(4,2)-thiazola-1(5,3)-indola-6(1,3)-pyridazinacycloundecaphane-4-yl)-2,3-dimethylcyclopropane-1-carboxamide] |  |  |  |  | 0.82 nM |  |  |  | 0.71 nM | 0.67 nM | 0.48 nM |
| CCn1c(-c2cc(C#CCN3CC(N=S(C)(C)=O)C3)cnc2[C@H](C)OC)c2c3cc(ccc31)-c1csc(n1)C[C@H](NC(=O)[C@H]1[C@H](C)[C@@H]1C)C(=O)N1CCC[C@H](N1)C(=O)OCC(C)(C)C2 [Compound Z1046, (2R,3S)—N-((6^3S,4S,Z)-1^2-(5-(3-(3-((dimethyl(oxo)-λ^6-sulfaneylidene)amino)azetidin-1-yl)prop-1-yn-1-yl)-2-((S)-1-methoxyethyl)pyridin-3-yl)-1^1-ethyl-10,10-dimethyl-5,7-dioxo-6^1,6^2,6^3,6^4,6^5,6^6-hexahydro-1^1H-8-oxa-2(4,2)-thiazola-1(5,3)-indola-6(1,3)-pyridazinacycloundecaphane-4-yl)-2,3-dimethylcyclopropane-1-carboxamide] |  |  |  |  | 0.63 nM |  |  |  | 0.34 nM | 0.34 nM | 0.71 nM |
| CCn1c(-c2cc(CCN3CCS(=O)(=O)CC3)cnc2[C@H](C)OC)c2c3cc(ccc31)-c1csc(n1)C[C@H](NC(=O)[C@H]1[C@H](C)[C@@H]1C)C(=O)N1CCC[C@H](N1)C(=O)OCC(C)(C)C2 [Compound Z485A, (1r,2R,3S)—N-((6^3S,4S,Z)-1^2-(5-(2-(1,1-dioxidothiomorpholino)ethyl)-2-((S)-1-methoxyethyl)pyridin-3-yl)-1-ethyl-10,10-dimethyl-5,7-dioxo-6^1,6^2,6^3,6^4,6^5,6^6-hexahydro-1^1H-8-oxa-2(4,2)-thiazola-1(5,3)-indola-6(1,3)-pyridazinacycloundecaphane-4-yl)-2,3-dimethylcyclopropane-1-carboxamide] | 2.4 nM | 1.14 nM | 1 nM | 1.45 nM |  |  |  |  |  |  |  |
| CCn1c(-c2cc(C#CCN3CCC3)cnc2[C@H](C)OC)c2c3cc(ccc31)-c1csc(n1)C[C@H](NC(=O)[C@H]1[C@@H]3COC[C@@H]31)C(=O)N1CCC[C@H](N1)C(=O)OCC(C)(C)C2 (atropisomer, axis not shown; (Ra)) [Compound Z1031, (1R,5S,6r)-N-((6^3S,4S,Z)-1^2-(5-(3-(azetidin-1-yl)prop-1-yn-1-yl)-(Ra)-2-((S)-1-methoxyethyl)pyridin-3-yl)-1^1-ethyl-10,10-dimethyl-5,7-dioxo-6^1,6^2,6^3,6^4,6^5,6^6-hexahydro-1^1H-8-oxa-2(4,2)-thiazola-1(5,3)-indola-6(1,3)-pyridazinacycloundecaphane-4-yl)-3-oxabicyclo[3,1,0]hexane-6-carboxamide] |  |  |  |  | 1.47 nM |  |  |  | 0.67 nM | 0.91 nM | 0.74 nM |
